Assay [1] concerns the target T1, recombinant human CB1 receptor expressed in CHO cells (Homo sapiens, UniProt P21554).
T1 construct: expressed in transfected cells; CB1-CHO cell suspension for cAMP
The experiment in a line: Cannabinoid Receptor-1 (CB1) Functional Activity Assay (cAMP). It counts as cell-based. How it is done: The functional activation of CB1 receptor is based on recombinant human CBI receptor expressed in CHO cells (Felder et al, Mol. Pharmacol. 48: 443-450, 1995). To determine the agonist activity or inverse agonist activity of any test compound, 50 ul of CB1-CHO cell suspension are mixed with test compound and 70 ul assay buffer containing 0.34 mM 3-isobutyl-1-methylxanthine and 5.1 uM of forskolin in 96-well plates. The assay buffer is comprised of Earle's Balanced Salt Solution supplemented with 5 mM MgCl2, 1 mM glutamine, 10 mM HEPES, and 1 mg/mL bovine serum albumin. The mixture is incubated at room temperature for 30 minutes, and terminated by adding 30 μl/well of 0.5M HCl. The total intracellular cAMP level is quantitated using the New England Nuclear Flashplate and cAMP radioimmunoassay kit.

For assay [2], the target named is T2, recombinant human CB1 receptor (Homo sapiens, UniProt P21554).
T2 construct: expressed in transfected cells; CB1-CHO cell suspension for cAMP
The experiment in a line: Cannabinoid Receptor-1 (CB1) Binding Assay. How it is done: Binding affinity determination is based on recombinant human CB1 receptor expressed in Chinese Hamster Ovary (CHO) cells (Felder et al, Mol. Pharmacol. 48: 443-450, 1995). Total assay volume is 250 μl (240 μl CB1 receptor membrane solution plus 5 μl test compound solution plus 5 μl [3H]CP-55940 solution). Final concentration of [3H]CP-55940 is 0.6 nM. Binding buffer contains 50 mM Tris-HCl, pH7.4, 2.5 mM EDTA, 5 mM MgCl2, 0.5 mg/mL fatty acid free bovine serum albumin and protease inhibitors (Cat#P8340, from Sigma). To initiate the binding reaction, 5 μl of radioligand solution is added, the mixture is incubated with gentle shaking on a shaker for 1.5 h at 30° C. The binding is terminated by using 96-well harvester and filtering through GF/C filter presoaked in 0.05% polyethylenimine. The bound radiolabel is quantitated using scintillation counter. Apparent binding affinities for various compounds are calculated from IC50 values (DeBlasi et al., Trends Pharmacol Sci 10: 227-229, 1989).

Where [3] appears, read: CB1-CHO cells, forskolin, intracellular cAMP, read-out: CB1 function activity EC50.
Where [4] appears, read: recombinant human CB1 receptor in CHO cells, [3H]CP-55940 0.6 nM, read-out: CB1 binding IC50.

These results are taken from US20090247499A1, “SULFONYLATED PIPERAZINES AS CANNABINOID-1 RECEPTOR MODULATORS” (priority 2006, published 2009).

Read-outs that look alike come from different tables or passages of the source.

T2 sequence (P21554 whole entry): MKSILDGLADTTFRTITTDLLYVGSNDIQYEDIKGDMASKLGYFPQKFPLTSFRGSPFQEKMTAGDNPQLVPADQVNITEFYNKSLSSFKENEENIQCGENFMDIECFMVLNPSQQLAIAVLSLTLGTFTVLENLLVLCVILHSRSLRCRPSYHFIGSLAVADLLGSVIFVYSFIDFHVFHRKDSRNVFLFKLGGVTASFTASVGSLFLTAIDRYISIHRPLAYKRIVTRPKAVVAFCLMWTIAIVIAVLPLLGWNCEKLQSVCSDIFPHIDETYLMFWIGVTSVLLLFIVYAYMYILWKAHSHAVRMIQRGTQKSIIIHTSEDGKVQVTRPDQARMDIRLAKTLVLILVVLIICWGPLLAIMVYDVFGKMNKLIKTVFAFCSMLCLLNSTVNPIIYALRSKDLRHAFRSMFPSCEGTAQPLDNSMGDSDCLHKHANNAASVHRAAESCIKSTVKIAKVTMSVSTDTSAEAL
T1 sequence (P21554 whole entry): as above

As for `O=C(CC1CC1)N1CCN(S(=O)(=O)c2cccc3ccccc23)CC1` [Example 17, 4-(cyclopropyl-acetyl)-1-(1-naphthylsulfonyl)piperazine], in assay [1] (setting [3]), the EC50 stood at 0.0011 µM. For the same compound, the IC50 in assay [2] (setting [4]) is 0.303 µM.
The like results for `O=C(N1CCCCC1)N1CCN(S(=O)(=O)c2cccc3ccccc23)CC1` [Example 83, 4-(piperidin-1-yl-carbonyl)-1-(1-naphthylsulfonyl) piperazine] were, in that order, 0.0105 µM and 3.79 µM.
The corresponding values for `O=C(c1ccccc1)N1CCN(S(=O)(=O)c2cc(C(F)(F)F)cc(C(F)(F)F)c2)CC1` [Example 89, 4-benzoyl-1-((3,5-bis(trifluoromethyl)phenyl)sulfonyl)piperazine] are 0.0377 µM and 3.22 µM.
`O=C(C1CCCCC1)N1CCN(S(=O)(=O)c2cc(Cl)cc(Cl)c2)CC1` [Example 101, 4-(cyclohexyl-carbonyl)-1-((3,5-dichlorophenyl)sulfonyl)piperazine]: the EC50 in assay [1] (setting [3]) turned out to be 0.00041 µM. In addition, the IC50 in assay [2] (setting [4]) amounted to 0.421 µM.
Take `O=C(C1CCCCC1)N1C2CCC1CN(S(=O)(=O)c1cccc3ccccc13)C2` [Example 114, 8-(cyclohexylcarbonyl)-3-(1-naphthylsulfonyl)-3,8-diazabicyclo[3.2.1]octane]: the EC50 in assay [1] was found to be 0.0151 µM. Besides, the IC50 in assay [2] was 3.19 µM.
As to `O=C(Cc1ccc(C(F)(F)F)cc1)N1CCN(S(=O)(=O)c2cc(C3CC3)cc(C(F)(F)F)c2)CC1` [Example 123, 4-(4-trifluoromethylphenyl-acetyl)-1-((3-cyclopropyl-5-trifluoromethyl-phenyl)sulfonyl)piperazine], in assay [1] (setting [3]), the EC50 was 0.00109 µM. The IC50 in assay [2] was found to be 0.00124 µM.
As to `COC(=O)c1cc(C(F)(F)F)cc(S(=O)(=O)N2CCN(C(=O)Cc3ccc(C(F)(F)F)cc3)CC2)c1` [Example 125, 4-(4-trifluoromethylphenyl-acetyl)-1-((3-methoxycarbonyl-5-trifluoromethyl-phenyl)sulfonyl)piperazine], in assay [1] (setting [3]), the EC50 came out at 0.0007 µM. The IC50 in assay [2] (setting [4]) came out at 0.00607 µM.
For `O=C(C1CCCCC1)N1CCN(S(=O)(=O)c2cc(C(F)(F)F)cc(C(F)(F)F)c2)CC1` [Example 132, 4-(cyclohexyl-carbonyl)-1-((3,5-bis(trifluoromethyl)phenyl)sulfonyl)piperazine], in assay [1], the EC50 amounted to 0.00107 µM. Also, the IC50 in assay [2] (setting [4]) came out at 0.26 µM.

Broadly, the EC50 is the concentration at which the effect is half-maximal. For orientation: IC50 means the midpoint of a concentration-inhibition curve.
